Experiments:
[1] = Inhibition of Bacillus subtilis NADK1 S132P mutant expressed in Escherichia coli BL21(DE3) assessed as reduction in NADP production using NAD as substrate by glucose-6-phosphate dehydrogenase coupled enzyme based spectrophotometric method
[2] = Cytotoxicity against human MRC5 cells up to 1 x 10^-4M; type: toxicity, cell-based
[3] = Inhibition of Bacillus subtilis NADK1 harboring Listeria monocytogenes NADK1 segment 2 expressed in Escherichia coli BL21(DE3) assessed as reduction in NADP production using NAD as substrate by glucose-6-phosphate dehydrogenase coupled enzyme based spectrophotometric method
[4] = Competitive inhibition of Listeria monocytogenes C-terminal His6-tagged NADK1 expressed in Escherichia coli BL21(DE3) assessed as reduction in NADP production using varying levels of NAD as substrate by glucose-6-phosphate dehydrogenase coupled enzyme based spectrophotometric method
[5] = target: T1, NAD kinase (Homo sapiens, UniProt O95544); assay: Inhibition of human NADK expressed in Escherichia coli BL21(DE3) assessed as reduction in NADP production using NAD as substrate by glucose-6-phosphate dehydrogenase coupled enzyme based spectrophotometric method
T1 sequence (O95544 whole entry): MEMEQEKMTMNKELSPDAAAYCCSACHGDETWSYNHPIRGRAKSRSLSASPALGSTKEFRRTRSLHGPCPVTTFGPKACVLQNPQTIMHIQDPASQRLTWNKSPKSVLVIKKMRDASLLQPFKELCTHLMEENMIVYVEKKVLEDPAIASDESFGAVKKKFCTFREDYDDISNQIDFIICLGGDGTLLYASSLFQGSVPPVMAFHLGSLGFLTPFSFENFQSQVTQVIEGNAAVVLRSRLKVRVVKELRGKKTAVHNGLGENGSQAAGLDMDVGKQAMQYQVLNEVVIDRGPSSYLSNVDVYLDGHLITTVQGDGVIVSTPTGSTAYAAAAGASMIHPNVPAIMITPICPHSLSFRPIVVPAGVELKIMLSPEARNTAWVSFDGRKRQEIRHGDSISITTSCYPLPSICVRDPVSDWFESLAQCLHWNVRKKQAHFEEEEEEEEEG

[6] = Inhibition of Staphylococcus aureus COL NADK S132P mutant expressed in Escherichia coli BL21(DE3) assessed as reduction in NADP production using NAD as substrate by glucose-6-phosphate dehydrogenase coupled enzyme based spectrophotometric method; parameters: species or system Staphylococcus aureus subsp. aureus COL
[7] = (§1) Inhibition of human NADK harboring Listeria monocytogenes NADK1 segment 1 expressed in Escherichia coli BL21(DE3) assessed as reduction in NADP production using NAD as substrate by glucose-6-phosphate dehydrogenase coupled enzyme based spectrophotometric method
[8] = as §1, with “of” for “of human NADK harboring”, “monocytogenes C-terminal His6-tagged” for “monocytogenes”, “NADK1 harboring Staphylococcus aureus COL NADK” for “NADK1”
[9] = Inhibition of Listeria monocytogenes C-terminal His6-tagged NADK1 P132S mutant expressed in Escherichia coli BL21(DE3) assessed as reduction in NADP production using varying levels of NAD as substrate by glucose-6-phosphate dehydrogenase coupled enzyme based spectrophotometric method
[10] = Inhibition of Bacillus subtilis NADK1 harboring Listeria monocytogenes NADK1 segment 1 expressed in Escherichia coli BL21(DE3) assessed as reduction in NADP production using NAD as substrate by glucose-6-phosphate dehydrogenase coupled enzyme based spectrophotometric method
[11] = target: T2, NAD kinase (Staphylococcus aureus (strain COL), UniProt Q5HH78); assay: Inhibition of Staphylococcus aureus COL NADK expressed in Escherichia coli BL21(DE3) assessed as reduction in NADP production using NAD as substrate by glucose-6-phosphate dehydrogenase coupled enzyme based spectrophotometric method; parameters: species or system Staphylococcus aureus subsp. aureus COL
T2 sequence (Q5HH78 whole entry): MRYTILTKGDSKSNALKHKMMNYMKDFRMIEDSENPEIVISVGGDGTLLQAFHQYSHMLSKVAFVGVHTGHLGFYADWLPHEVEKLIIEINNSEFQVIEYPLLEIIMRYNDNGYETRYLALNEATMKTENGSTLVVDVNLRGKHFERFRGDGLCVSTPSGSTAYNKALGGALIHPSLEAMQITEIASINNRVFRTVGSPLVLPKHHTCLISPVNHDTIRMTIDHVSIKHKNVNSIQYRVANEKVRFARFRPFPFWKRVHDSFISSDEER

[12] = tested on: Bacillus subtilis; assay: Inhibition of Bacillus subtilis NADK1 expressed in Escherichia coli BL21(DE3) assessed as reduction in NADP production at 300 uM using NAD as substrate by glucose-6-phosphate dehydrogenase coupled enzyme based spectrophotometric method relative to control

[N-]=[N+]=NC[C@H]1O[C@@H](n2c(SCC(=O)NCCc3cccc(Br)c3)nc3c(N)ncnc32)[C@H](O)[C@@H]1O
Ki [1]: 100 µM
Activity [2]: Non-Toxic
Ki [3]: 30 µM
Ki [4]: 1 µM
Ki [5]: 330 µM
Ki [6]: 170 µM
Ki [7]: 75 µM
Ki [8]: 2.5 µM
Ki [9]: 10 µM
Ki [10]: 55 µM
IC50 [11]: > 400 µM
inhibition [12]: 15%
